# Reference: patent publication US20240285630A1, “Methods and compositions for improving exercise performance” (MEZZION PHARMA CO., LTD., priority 2021, published 2024)
# Values joined by “and” are separate entries in the source; they are usually repeats but may differ in a detail not shown here. Equal entries are not always repeated.
# System: adolescents with Fontan physiology
# Assay: FUEL Trial cardiopulmonary exercise test (CPET), cycle ergometer ramp protocol
# Type: in vivo, human
# Conditions: for Change in VE/VCO2 at VAT: 26 week - baseline; for Peak VO2 (% change), difference in change (treatment - placebo): natural log transformed data
# Excerpt: The primary outcome was the change in oxygen consumption at peak exercise (max or peak VO2) from baseline to the 26-week visit. Secondary exercise outcomes included change in additional measures at maximal exertion, as well as change in measures of submaximal exercise at the ventilatory anaerobic threshold (VAT). The primary outcome for clinical secondary aims included change in myocardial performance index (MPI), an echocardiographically-derived measure of systolic and diastolic ventricular function, change in log-transformed reactive hyperemia index (InRHI), a PAT-derived measure of peripheral vascular function, and change in log-transformed serum BNP level. Safety was monitored through adverse event reports, which were collected according to a pre-specified protocol of study coordinator outreach, and through ad hoc patient and family communication with members of the study team at each site.
# Baseline clinical testing completed before drug initiation included a blood draw to measure brain-type natriuretic peptide (BNP) level, a cardiopulmonary exercise test (CPET) using a standardized cycle ergometer ramp protocol, a standardized echocardiogram, and an assessment of peripheral vascular function using peripheral arterial tonometry (PAT) measured by finger cuff (EndoPAT; Itamar Medical, Israel). Participants who achieved maximal effort, defined as respiratory exchange ratio (RER)≥1.10 at peak exercise during CPET, were eligible for randomization and study drug initiation. […] End-of-study clinical testing included repeat measurement of serum BNP, CPET, echocardiogram, and PAT.
# The primary analysis used the intention-to-treat population to evaluate the difference in the change in the primary outcome between treatment arms. This difference was assessed with an analysis of covariance (ANCOVA) with fixed factors for ventricular morphology (single left versus single right or mixed) and treatment group, with a continuous covariate of baseline max VO2. […] Secondary analyses included participants who successfully completed the protocol with measurable values at each of the secondary endpoints. Secondary outcomes of continuous data points were analyzed in the manner described for the primary outcome. In order to assess the generalizability of findings at the ventilatory anaerobic threshold, demographic and clinical characteristics were compared between participants without paired VO2 at VAT data and those comprising the remainder of the cohort.
# The FUEL Trial was a Phase III clinical trial conducted at 30 centers. […] The primary outcome was the between group difference in change in oxygen consumption at peak exercise. Secondary outcomes included between group differences in changes in sub-maximal exercise at the ventilatory anaerobic threshold (VAT), the myocardial performance index (MPI), the natural log of the reactive hyperemia index (InRHI), and serum brain-type natriuretic peptide (BNP).
# Baseline clinical testing completed before drug initiation included a blood draw to measure brain-type natriuretic peptide (BNP) level, a cardiopulmonary exercise test (CPET) using a standardized cycle ergometer ramp protocol (previously described in children and adolescents with Fontan physiology, Sleeper L A, Anderson P, Hsu D T, Mahony L, McCrindle B W, Roth S J, Saul J P, Williams R V, Geva T, Colan S D, Clark B J and Pediatric Heart Network I. Design of a large cross-sectional study to facilitate future clinical trials in children with the Fontan palliation. Am Heart J. 152(3):427-433 (September 2006), a standardized echocardiogram, and an assessment of peripheral vascular function using peripheral arterial tonometry (PAT) measured by finger cuff (EndoPAT; Itamar Medical, Israel). Participants who achieved maximal effort, defined as respiratory exchange ratio (RER)>1.10 at peak exercise during CPET, were eligible for randomization and study drug initiation. […]
# [1] = baseline peak VO2 <80% predicted, N=251
# [2] = baseline peak VO2 <80% predicted, N=301
# [3] = baseline peak VO2 ≥80% predicted, N=66
# [4] = excluding those with baseline peak VO2 ≥80% predicted, n=122
# [5] = excluding those with baseline peak VO2 ≥80% predicted, n=150
# [6] = post-hoc subgroup excluding baseline peak VO2 ≥80% of predicted
# [7] = subgroup with baseline peak VO2 ≥80% of predicted, each treatment group
compound,measurement,setting,value
"CCCOc1ccc(S(=O)(=O)NCCC2CCCN2C)cc1-c1nc2c(CCC)nn(C)c2c(=O)[nH]1 (centres unmarked) [Udenafil, udenafil]","Increase in peak VO2 (VO2 max), percent","87.5 mg twice daily, baseline to 26-week, ITT",2.8%
same,"Increase in peak VO2 (VO2 max), unindexed","87.5 mg twice daily, baseline to 26-week, ITT n=200, p=0.071 vs placebo",44 mL/min and 44 ± 245 mL/min
same,"Anaerobic threshold oxygen consumption indexed to weight, 26-week","26-week value, mean ± SD, n=185",18.20 ± 4.51 (185) mL/kg/min
same,"Peak exercise oxygen consumption indexed to weight, 26-week","26-week value, mean ± SD, n=200",27.61 ± 6.87 (200) mL/kg/min
same,Number needed to treat (NNT) for an increase in peak VO2,ITT analysis,10
same,"Patients with an increase in peak VO2, number",ITT analysis without imputation of missing data,86
same,"Patients with an increase in peak VO2, percent","ITT analysis without imputation of missing data, p=0.075 vs placebo",46%
same,"Peak VO2 indexed to weight, change 26 week - baseline","all participants (ITT) n=200, p=0.092 vs placebo",−0.23 ± 4.06 (200) mL/kg/min and −0.23 mL/kg/min
same,"VO2 at VAT indexed to weight, change 26 week - baseline","all participants n=170, p=0.012 vs placebo",−0.07 ± 3.0 (170) mL/kg/min and −0.07 mL/kg/min
same,"% Predicted Peak VO2, 26 week - baseline",all participants n=189,−0.90
same,"Peak VO2 (% change, ml/kg/min), 26 week - baseline",all participants n=200,−1.0%
same,Change in VE/VCO2 at VAT,all participants,−0.76
same,Change in VE/VCO2 at VAT,"all participants, listed as udenafil",−0.8
same,Change in work rate at VAT,"all participants, baseline to 26-week",3.46 Watts
same,"Work at VAT, difference in change (treatment - placebo)","baseline peak VO2 <80% predicted, N=243",3.54 watts
same,"VE/VCO2 at VAT, difference in change (treatment - placebo)",[1],−0.66
same,"VO2 at VAT, difference in change (treatment - placebo)",[1],0.77 mL/min/kg
same,"Peak VO2, difference in change (treatment group - placebo group)",[2],1.12 mL/min/kg
same,"Peak VO2 (% change), difference in change (treatment - placebo)",[2],5.0%
same,"Peak VO2, difference in change (treatment group - placebo group)","baseline peak VO2 ≥80% predicted (Super Fontan), N=77",-0.89 mL/min/kg
same,"Peak VO2, difference in change (treatment group - placebo group)","baseline peak VO2 ≥80% predicted (Super Fontan), N=77, listed as udenafil",no significant udenafil treatment effect
same,"VE/VCO2 at VAT, difference in change (treatment - placebo)",[3],−1.18
same,"VO2 at VAT, difference in change (treatment - placebo)",[3],0.38 mL/min/kg
same,"Work at VAT, difference in change (treatment - placebo)",[3],3.15 watts
same,"Peak VO2 (% change), difference in change (treatment - placebo)","baseline peak VO2 ≥80% predicted, N=77",−2.39%
same,"Decrease in VE/VCO2 at VAT, percent",baseline to 26-week,2.1%
same,"Improvement in work rate at VAT, percent",baseline to 26-week,5.5% and 5.2%
same,Decrease in VE/VCO2 at VAT (improved ventilatory efficiency),"baseline to 26-week, given as size of decrease",0.8
same,"Peak exercise heart rate, change","baseline to 26-week, mean ± SD",−1.4 ± 11 bpm
same,"Peak exercise minute ventilation, change","baseline to 26-week, mean ± SD",1.2 ± 14 L/min
same,"Peak exercise oxygen saturation, change","baseline to 26-week, mean ± SD",0.4 ± 3.4%
same,"Peak exercise respiratory rate, change","baseline to 26-week, mean ± SD",−1.1 ± 10 breaths/min
same,"Peak exercise minute ventilation, change","baseline to 26-week, mean ± SD, listed as udenafil",no difference in the change in minute ventilation between groups
same,"Work at VAT, 26 week - baseline","excluding those with baseline peak VO2 ≥80% predicted, n=119",3.80 watts
same,"VE/VCO2 at VAT, 26 week - baseline",[4],−0.61
same,"VO2 at VAT, 26 week - baseline",[4],0.11 mL/min/kg
same,"% Predicted Peak VO2, 26 week - baseline",[5],0.43
same,"Peak VO2 (% change, ml/kg/min), 26 week - baseline",[5],0.4%
same,"Peak VO2, 26 week - baseline",[5],0.23 mL/min/kg
same,Number needed to treat (NNT) for an increase in peak VO2,[6],8.2
same,"Patients with an increase in peak VO2, number",[6],75
same,"Patients with an increase in peak VO2, percent","post-hoc subgroup excluding baseline peak VO2 ≥80% of predicted, p=0.037 vs placebo",50%
same,"Patients with negative change in peak VO2, percent",[7],71 to 72%
same,"Patients with positive change in peak VO2, percent",[7],28 to 29%
